Measurements taken from patent publication US11360096B2, “Complex BRET technique for measuring biological interactions” (DUKE UNIVERSITY, priority 2019, dated 2022).

Tests used:
[1] = molecular target: T1, Angiotensin II type 1 receptor (AT1R) (Homo sapiens, UniProt P30556); assay: TGF-α shedding assay of canonical G protein signaling at AT1R; assay type: cell-based; conditions: four Gα-family proteins tested
T1 sequence (P30556 1-359): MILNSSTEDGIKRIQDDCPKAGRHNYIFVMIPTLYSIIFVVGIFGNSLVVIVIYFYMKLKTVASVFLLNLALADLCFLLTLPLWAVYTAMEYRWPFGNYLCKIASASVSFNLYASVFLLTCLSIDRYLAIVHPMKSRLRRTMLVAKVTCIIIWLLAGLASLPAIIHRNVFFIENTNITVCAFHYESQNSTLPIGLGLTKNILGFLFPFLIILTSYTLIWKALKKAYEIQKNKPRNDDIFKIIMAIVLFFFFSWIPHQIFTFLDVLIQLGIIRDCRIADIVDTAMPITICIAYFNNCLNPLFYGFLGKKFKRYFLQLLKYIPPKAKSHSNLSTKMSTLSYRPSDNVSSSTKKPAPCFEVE

[2] = tested on: Gαi:β-arrestin-2 complexes; assay: Split luciferase Gαi-LgBiT:β-arrestin-2-smBiT complex formation in cells overexpressing V2R; assay type: cell-based, human
Experimental: (§1) HEK293T cells seeded in 6-well plates were co-transfected with 500 ng of smBiT tagged β-arrestin-2, and either 250 ng of LgBiT tagged receptor or 2000 ng of untagged receptor and varying concentrations of LgBiT Gα protein expression vector (most experiments were conducted between 50-200 ng of Gα plasmid) or 2000 ng of mKO tagged β-arrestin-2 and 500 ng of smBiT tagged V2R using a calcium phosphate protocol. Twenty-four hours post-transfection, cells were plated onto clear bottom, white-walled 96-well plates at 50,000-100,000 cells/well in “BRET media”—clear minimum essential medium (GIBCO) supplemented with 2% FBS, 10 mM HEPES, 1×GLUTAMAX™, and 1× Anti-Anti (GIBCO). […] For luminescence split luciferase studies, plates were read with a BioTek SYNERGY™ Neo2 plate reader set at 37° C. with a 485 nm emission filter. […] For split luciferase luminescence experiments, plates were read both before and after ligand treatment to calculate Δnet change in luminescence and subsequently normalized to vehicle treatment. For complex BRET experiments, plates were read on a Berthold Mithras LB940 using pre-warmed media and instrument at 37° C. using a standard Rluc emissions filter (480 nm) with a custom mKO 542 nm long-pass emission filter (Chroma Technology Co., Bellows Falls, Vt.). The BRET ratio was calculated by dividing the mKO signal by the luciferase signal.

ERK1/2 phosphorylation = assay: Phospho-ERK/total ERK immunoblot in 'triple G' HEK 293 cells overexpressing V2R; assay type: cell-based, human; conditions: agonist treated
Experimental: Cells were serum starved for at least four hours, stimulated with the indicated ligand, subsequently washed 1× with ice-cold PBS, lysed in ice-cold RIPA buffer containing phosphatase and protease inhibitors (Phos-STOP (Roche), Complete EDTA free (Sigma)) and rotated for forty-five minutes, and cleared of insoluble debris by centrifugation at >12,000×g (4° C., 15 minutes), after which the supernatant was collected. Protein was resolved on SDS-10% polyacrylamide gels, transferred to nitrocellulose membranes, and immunoblotted with the indicated primary antibody overnight (4° C.). Phospho-ERK (Cell Signaling Technology, #9106) and total ERK (Millipore #06-182) were used to assess ERK activation. A1-CT antibody that recognizes both isoforms of β-arrestin was utilized, with protein loading assessed by alpha-tubulin (Sigma #T6074). Galpha i-1 (13533, Santa Cruz Biotechnology), Galpha q/11/14 (365906, Santa Cruz Biotechnology), Galpha 12 (515445, Santa Cruz Biotechnology), Galpha 13 (293424, Santa Cruz Biotechnology), Galpha s/olf (55545, Santa Cruz Biotechnology) antibodies were used to verify ‘Δ3G’ HEK 293 cells.
Horseradish peroxidase-conjugated polyclonal mouse anti-rabbit-IgG or anti-mouse-IgG were used as secondary antibodies. […] For quantification, phospho-protein signal was normalized to total protein signal using Image Lab (Bio-Rad) within the same blot.

[3] = tested on: HEK 293 cells stably expressing AT1R; assay: Wound-healing migration assay, immortalized cells; assay type: cell-based, human; conditions: PTX pretreatment 200 ng/mL
Experimental: HEK 293T cells stably expressing the AT1R were utilized. Briefly, 70 μl of cell suspension at a concentration of 5×10^5 cells per mL was applied into each well of silicone inserts (Ibidi, Martinsried, Germany) on 24 well plate, and after 24 hrs incubation, the inserts were removed to create a wound field. The cells were incubated additionally for 12 hrs with 1 μM of TRV120023 and visualized with a Zeiss Axio Observer microscope (Carl Zeiss, Thornwood, N.Y.). Wound healing was then analyzed using ImageJ (NIH, Bethesda, Md.) wound healing tool macros.

[4] = tested on: human pulmonary arterial smooth muscle cells (PASMCs); assay: Wound-healing migration assay, primary human cells; assay type: cell-based
Experimental: Human pulmonary arterial smooth muscle cells (PASMCs) were isolated from human lungs from a de-identified health donor (International Institute for the Advancement of Medicine, Edison, N.J.) with Institutional Review Board approval. Human PASMCs were seeded into 24-well plates at a density of 1.5×10^4 cells per well in Human Smooth Muscle Cell Basal Medium supplemented with Human SMC Growth Supplement (Cell Application, Inc.). At 30% confluency, cells were transfected with 50 ng of control or β-arrestin-1 and β-arrestin-2 ON […]™ siRNA pools (Dharmacon, Inc.). When the cells reached 100% confluency, they were serum starved for 4 hours with 2 hrs of PTX (200 ng/mL) treatment. Scratches were made using small pipette tips. Cells were washed using DPBS and stimulated with basal smooth muscle cell medium containing 1 μM Angiotensin-II (Millipore Sigma) or 10 μM TRV120023 (Genscript USA Inc.). The wound closure was monitored using live-cell station Zeiss Axio Observer microscope (Carl Zeiss, Thornwood, N.Y.). The images were captured in real-time at 0 hour and for every hour until 16 hours. The initial edges of the scratch at 0 hour time point were marked and migrated distance 12-16 hrs afterwards was measured using METAMORPH® Premier software (Molecular Devices, San Jose, Calif.) at the Duke Light Microscopy Core Facility (Durham, N.C.).

[5] = molecular target: T2, V2R:β-arrestin-2 complexes (Homo sapiens, UniProt P30518); assay: Split luciferase V2R-LgBiT:β-arrestin-2-smBiT association; assay type: cell-based; conditions: V2R or β2AR
T2 construct: 3xHA (N); expressed in transfected cells; host or cells: HEK293T
Experimental: as §1

Angiotensin II [AngII]
Canonical G protein signaling at AT1R [1]: canonically signals through both Gαq and Gαi

pertussis toxin
Sensitivity of the Gαi:β-arrestin interaction to pertussis toxin ([2]; pertussis toxin pretreatment): partially sensitive to pertussis toxin | ERK phosphorylation after pertussis toxin pretreatment (ERK1/2 phosphorylation): abrogated, but did not eliminate, ERK phosphorylation | Reduction of TRV120023-mediated migration by pertussis toxin pretreatment [3]: ~50% | Pertussis toxin sensitivity of migration towards TRV120023 [4]: pertussis toxin sensitive | Effect of pertussis toxin pretreatment on β-arrestin recruitment to receptor [5]: did not affect β-arrestin recruitment to either the V2R or β2AR

CCOc1ccc2c(c1)C1(CCC(OCCN3CCOCC3)CC1)C(=O)N2S(=O)(=O)c1ccc(C(=O)NC(C)(C)C)cc1OC (stereo not shown) [SR121463]
Gαi:β-arrestin complex formation after antagonist pretreatment ([2]; HEK 293 cells overexpressing V2R, pretreatment 30 min, 10 uM): prevented formation of Gαi:β-arrestin complexes
